Measurements: paper PMC9375364, “Fabrication of multifunctional metal–organic frameworks nanoparticles via layer-by-layer self-assembly to efficiently discover PSD95-nNOS uncouplers for stroke treatment” (Journal of Nanobiotechnology, 2022)

biological target: T1, PSD95-nNOS (GFP-PSD95 coupled to His-nNOS on magnetic Fe-MOF) (Rattus norvegicus (nNOS); Homo sapiens (PSD95), UniProt P29476+P78352); assay: uncoupling of GFP-PSD95 from His-nNOS/Fe-MOF, magnetic separation, fluorescence; type: binding; conditions: not given
T1 construct: gene Nos1; two-species complex; myc-His-nNOS (pcDNA3.1) and GFP-PSD95-Flag (pcDNA3.1), total synthesized genes, expressed in HEK293T, from RIPA lysates; His-nNOS immobilized on magnetic Fe-MOF, then GFP-PSD95 coupled
Source text: uncoupling of GFP-PSD95 from His-nNOS/Fe-MOF, magnetic separation, fluorescence on PSD95-nNOS (GFP-PSD95 coupled to His-nNOS on magnetic Fe-MOF)

T1 sequence (P29476 whole entry): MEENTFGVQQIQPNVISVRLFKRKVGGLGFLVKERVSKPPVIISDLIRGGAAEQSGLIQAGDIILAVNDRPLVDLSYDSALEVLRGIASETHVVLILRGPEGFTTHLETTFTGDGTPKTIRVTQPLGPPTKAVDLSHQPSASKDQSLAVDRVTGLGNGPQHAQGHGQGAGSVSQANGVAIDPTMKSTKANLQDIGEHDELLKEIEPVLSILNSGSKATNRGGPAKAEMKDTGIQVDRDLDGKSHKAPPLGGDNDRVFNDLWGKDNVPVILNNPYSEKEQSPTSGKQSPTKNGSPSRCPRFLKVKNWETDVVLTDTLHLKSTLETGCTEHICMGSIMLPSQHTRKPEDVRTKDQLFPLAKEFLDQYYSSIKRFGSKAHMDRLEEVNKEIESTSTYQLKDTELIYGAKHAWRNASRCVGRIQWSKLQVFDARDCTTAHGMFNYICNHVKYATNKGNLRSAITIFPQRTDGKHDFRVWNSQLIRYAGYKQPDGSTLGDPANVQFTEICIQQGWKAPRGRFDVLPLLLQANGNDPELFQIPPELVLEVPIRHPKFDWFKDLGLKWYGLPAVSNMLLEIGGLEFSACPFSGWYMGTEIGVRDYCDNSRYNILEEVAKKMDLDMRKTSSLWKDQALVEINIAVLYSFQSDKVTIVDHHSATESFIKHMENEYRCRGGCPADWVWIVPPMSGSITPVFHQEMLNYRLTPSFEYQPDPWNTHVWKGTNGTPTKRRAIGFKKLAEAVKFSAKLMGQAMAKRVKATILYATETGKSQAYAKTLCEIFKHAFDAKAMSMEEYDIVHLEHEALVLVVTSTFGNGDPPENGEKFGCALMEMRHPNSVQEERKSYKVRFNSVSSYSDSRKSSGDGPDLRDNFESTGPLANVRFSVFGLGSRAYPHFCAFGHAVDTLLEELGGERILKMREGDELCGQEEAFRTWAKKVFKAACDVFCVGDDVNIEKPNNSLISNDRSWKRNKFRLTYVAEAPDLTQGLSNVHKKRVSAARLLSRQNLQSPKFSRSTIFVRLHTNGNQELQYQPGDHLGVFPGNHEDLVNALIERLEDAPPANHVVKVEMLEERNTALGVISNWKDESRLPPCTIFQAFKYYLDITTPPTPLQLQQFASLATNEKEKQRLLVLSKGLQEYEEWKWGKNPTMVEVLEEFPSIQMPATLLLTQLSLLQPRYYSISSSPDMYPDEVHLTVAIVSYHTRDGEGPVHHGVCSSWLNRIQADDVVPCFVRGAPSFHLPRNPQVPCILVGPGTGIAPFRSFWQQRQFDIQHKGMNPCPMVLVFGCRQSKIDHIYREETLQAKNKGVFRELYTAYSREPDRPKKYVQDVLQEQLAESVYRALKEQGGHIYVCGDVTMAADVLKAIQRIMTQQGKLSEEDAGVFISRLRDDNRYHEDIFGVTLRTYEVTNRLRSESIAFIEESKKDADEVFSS
T1 sequence (P78352 whole entry): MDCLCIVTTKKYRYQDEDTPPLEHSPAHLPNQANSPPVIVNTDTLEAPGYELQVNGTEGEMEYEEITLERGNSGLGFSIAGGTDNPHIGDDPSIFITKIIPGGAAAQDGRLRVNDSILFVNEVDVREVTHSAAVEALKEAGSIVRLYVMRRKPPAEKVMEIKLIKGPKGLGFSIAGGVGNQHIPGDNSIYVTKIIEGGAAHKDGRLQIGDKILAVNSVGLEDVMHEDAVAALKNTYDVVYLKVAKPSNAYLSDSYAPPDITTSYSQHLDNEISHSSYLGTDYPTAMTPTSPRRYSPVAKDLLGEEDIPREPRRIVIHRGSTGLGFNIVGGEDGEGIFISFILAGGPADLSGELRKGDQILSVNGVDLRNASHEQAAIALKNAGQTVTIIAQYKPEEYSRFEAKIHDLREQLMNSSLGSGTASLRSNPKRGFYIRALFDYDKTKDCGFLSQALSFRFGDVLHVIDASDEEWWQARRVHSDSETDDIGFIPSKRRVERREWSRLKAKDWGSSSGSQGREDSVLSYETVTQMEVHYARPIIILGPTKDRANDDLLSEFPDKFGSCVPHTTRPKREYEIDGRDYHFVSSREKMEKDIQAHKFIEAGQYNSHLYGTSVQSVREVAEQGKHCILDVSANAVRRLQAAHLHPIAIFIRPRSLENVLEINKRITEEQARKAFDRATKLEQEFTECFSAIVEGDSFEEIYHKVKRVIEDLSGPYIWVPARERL

SMILES	IC50
COc1ccc2c(c[n+](C)c3c4cc5c(cc4ccc23)OCO5)c1OC [compound 8, Chelerythrine]	> 1800 µM
COc1cc2c[n+](C)c3c4cc5c(cc4ccc3c2cc1OC)OCO5 [compound 7, Nitidine chloride]	> 1800 µM
O=C(O)c1ccc(NCc2cc(Cl)cc(Cl)c2O)cc1O [ZL006, 4-(3,5-Dichloro-2-hydroxy-benzylamino)-2-hydroxybenzoic acid, reference compound]	1800 ± 151 µM
COc1cc(/C=C/c2cc(O)cc(O)c2)ccc1O [compound 6, Isorhapontigenin]	> 1800 µM
COc1cc(O)c2c(c1)C(=O)c1cc(C)cc(O)c1C2=O [compound 9, Physcion]	> 1800 µM

More lines, now with the values ahead:

IC50	SMILES
144 ± 22 µM	O=c1cc(-c2ccccc2)oc2cc(O)c(O)c(O)c12 [compound 2, Baicalein]
104 ± 1 µM	O=C(O)[C@H]1O[C@@H](Oc2cc3oc(-c4ccccc4)cc(=O)c3c(O)c2O)[C@H](O)[C@@H](O)[C@@H]1O [compound 1, Baicalin]

same assay, conditions: PBS pH 7.4, 0.1% DMSO, 4 °C, 5 h; immobilized nNOS; inhibition of PSD95-nNOS coupling, binding chain not told

SMILES	IC50
Oc1cc(O)cc(/C=C/c2c(O)cccc2O)c1 [compound 3, Gnetol]	492 ± 63 µM
